In patent US11802120B2, “Fused cyclic urea derivatives as CRHR2 antagonist” (RaQualia Pharma Inc., priority 2018, dated 2023):

Target: T1, human CRHR2-alpha (Homo sapiens, UniProt Q13324)
T1 sequence (Q13324 1-411): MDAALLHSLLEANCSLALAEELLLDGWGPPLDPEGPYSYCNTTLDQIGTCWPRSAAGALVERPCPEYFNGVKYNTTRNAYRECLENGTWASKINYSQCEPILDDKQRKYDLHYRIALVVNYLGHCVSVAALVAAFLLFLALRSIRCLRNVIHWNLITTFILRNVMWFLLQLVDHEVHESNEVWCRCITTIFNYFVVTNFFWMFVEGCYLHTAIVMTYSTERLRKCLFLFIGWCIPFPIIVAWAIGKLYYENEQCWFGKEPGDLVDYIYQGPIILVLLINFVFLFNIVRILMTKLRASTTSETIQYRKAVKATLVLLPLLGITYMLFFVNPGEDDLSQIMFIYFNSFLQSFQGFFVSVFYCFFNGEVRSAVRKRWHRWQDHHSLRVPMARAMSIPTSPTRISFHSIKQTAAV
Assay: cAMP functional assay for human CRHR2 (LANCE Ultra cAMP, TR-FRET)
Format: cell-based
Details: CHO-K1 cells expressing human CRHR2-alpha, agonist human urocortin2 at EC80, cAMP; read-out: IC50 against CRHR2
Summary of the method: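 CHO-K1 cells stably expressing each receptor, serum-starved and cryopreserved, were preincubated with compound 30 min at 25° C in HBSS buffer with 0.5 mM IBMX, pH 7.4, then stimulated 30 min with EC80 agonist (urocortin2 for CRHR2, CRF for CRHR1). cAMP read by TR-FRET; IC50 from percent-inhibition curves.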

SMILES	IC50
Cc1ncc(Cl)cc1C(=O)N[C@H]1CC[C@H](Cn2c(=O)n(-c3ccc(Br)nc3)c3ccccc32)CC1 [Example 66, N((1r,4r)-4-((3-(6-bromopyridin-3-yl)-2-oxo-2,3-dihydro-1H-benzo[d]imidazol-1-yl)methyl)cyclohexyl)-5-chloro-2-methylnicotinamide]	< 300 nM
Cc1ncc(Cl)cc1C(=O)N[C@H]1CC[C@H](Cn2c(=O)n(-c3ccc(C(=O)NC4COC4)cc3)c3ccccc32)CC1 [Example 130, 5-chloro-2-methyl-N-((1r,4r)-4-((3-(4-(oxetan-3-ylcarbamoyl)phenyl)-2-oxo-2,3-dihydro-1H-benzo[d]imidazol-1-yl)methyl)cyclohexyl)nicotinamide]	< 300 nM
O=C(N[C@H]1CC[C@H](Cn2c(=O)n(-c3cncc(-n4cccn4)c3)c3ccccc32)CC1)c1cc(Cl)cnc1C(F)F [Example 703, N-((1r,4r)-4-((3-(5-(1H-pyrazol-1-yl)pyridin-3-yl)-2-oxo-2,3-dihydro-1H-benzo [d]imidazol-1-yl)methyl)cyclohexyl)-5-chloro-2-(difluoromethyl)nicotinamide]	< 300 nM
Cc1ncc(Cl)cc1C(=O)N[C@H]1CC[C@H](Cn2c(=O)n(-c3ccc(C=O)cc3C#N)c3ccccc32)CC1 [Example 306, 5-chloro-N-((1r,4r)-4-((3-(2-cyano-4-formylphenyl)-2-oxo-2,3-dihydro-1H-benzo[d]imidazol-1-yl)methyl)cyclo-hexyl)-2-methylnicotinamide]	< 300 nM
CCNC(=O)c1ccc(-n2c(=O)n(C[C@H]3CC[C@H](NC(=O)c4cc(Cl)cnc4C(F)F)CC3)c3ccccc32)cn1 [Example 551, 5-(3-(((1r,4r)-4-(5-chloro-2-(difluoromethyl)nicotina-mido)cyclohexyl)methyl)-2-oxo-2,3-dihydro-1H-benzo [d]imidazol-1-yl)-N-ethylpicolinamide]	< 300 nM
COc1ccc(-n2c(=O)n(C[C@H]3CC[C@H](NC(=O)c4cc(Cl)cnc4C(F)F)CC3)c3ccccc32)cn1 [Example 323, 5-chloro-2-(difluoromethyl)-N-((1r,4r)-4-((3-(6-methoxy-pyridin-3-yl)-2-oxo-2,3-di-hydro-1H-benzo[d]imidazol-1-yl)methyl)cyclohexyl)nico-tinamide]	< 300 nM
Cn1ccc(-c2cccc(-n3c(=O)n(C[C@H]4CC[C@H](NC(=O)c5cc(Cl)cnc5C(F)F)CC4)c4ccccc43)c2)n1 [Example 700, 5-chloro-2-(difluoromethyl)-N-((1r,4r)-4-((3-(3-(1-methyl-1H-pyrazol-3-yl)phenyl)-2-oxo-2,3-dihydro-1H-benzo[d]imidazol-1-yl)methyl)cyclohexyl) nicotinamide]	< 300 nM
CNc1ccc(-n2c(=O)n(C[C@H]3CC[C@H](NC(=O)c4cc(Cl)cnc4C(F)(F)F)CC3)c3cc(F)ccc32)cn1 [Example 704, 5-chloro-N-((1r,4r)-4-((6-fluoro-3-(6-(methylamino)pyridin-3-yl)-2-oxo-2,3-dihydro-1H-benzo[d]imidazol-1-yl)methyl)cyclo-hexyl)-2-(trifluoromethyl) nicotinamide]	< 300 nM
CN(CCO)c1ccc(-n2c(=O)n(C[C@H]3CC[C@H](NC(=O)c4cc(Cl)cnc4C(F)F)CC3)c3ccccc32)cn1 [Example 382, 5-chloro-2-(difluoromethyl)-N-((1r,4r)-4-((3-(6-((2-hydroxyethyl)(methyl)amino)pyridin-3-yl)-2-oxo-2,3-dihydro-1H-benzo[d]imidazol-1-yl)methyl)cyclohexyl)nicotinamide]	< 300 nM
CNC(=O)c1ccc(-n2c(=O)n(C[C@H]3CC[C@H](NC(=O)c4cc(Cl)cnc4C(F)F)CC3)c3ccc(F)cc32)cn1 [Example 562, 5-(3-(((1r,4r)-4-(5-chloro-2-(difluororomethyl)nicotina-mido)cyclohexyl)methyl)-6-fluoro-2-oxo-2,3-dihydro-1H-benzo[d]imidazol-1-yl)-N-methylpicolinamide]	< 300 nM
N#Cc1ncccc1-n1c(=O)n(C[C@H]2CC[C@H](NC(=O)c3cc(Cl)cnc3C(F)(F)F)CC2)c2ccccc21 [Example 293, 5-chloro-N-((1r,4r)-4-((3-(2-cyanopyridin-3-yl)-2-oxo-2,3-dihydro-1H-benzo [d]imidazol-1-yl)methyl)cyclohexyl)-2-(trifluoro-methyl)nicotinamide]	< 300 nM

Continued, values first:

IC50	SMILES
< 300 nM	O=C(NCCF)c1ccc(-n2c(=O)n(C[C@H]3CC[C@H](NC(=O)c4cc(Cl)cnc4C(F)(F)F)CC3)c3ccccc32)cn1 [Example 410, 5-(3-(((1r,4r)-4-(5-chloro-2-(trifluoromethyl)nicotinamido)cyclohexyl)methyl)-2-oxo-2,3-dihydro-1H-benzo[d]imidazol-1-yl)-N-(2-fluoroethyl) picolinamide]
< 300 nM	O=C(N[C@H]1CC[C@H](Cn2c(=O)n(-c3cc(F)ccc3Cl)c3cccnc32)CC1)c1cc(Cl)cnc1C(F)F [Example 676, 5-chloro-N-((1r,4r)-4-((1-(2-chloro-5-fluorophenyl)-2-oxo-1H-imidazo[4,5-b]pyridin-3(2H)-yl)methyl)cyclohexyl)-2-(difluoro-methyl)nicotinamide]
< 300 nM	Cc1ccc(-n2c(=O)n(C[C@H]3CC[C@H](NC(=O)c4cc(Cl)cnc4C(F)F)CC3)c3ccccc32)cn1 [Example 324, 5-chloro-2-(difluoromethyl)-N-((1r,4r)-4-((3-(6-methyl-pyridin-3-yl)-2-oxo-2,3-dihydro-1H-benzo[d]imidazol-1-yl)methyl)cyclohexyl)nico-tinamide]
< 300 nM	CN(C)c1cc(-n2c(=O)n(C[C@H]3CC[C@H](NC(=O)c4cc(Cl)cnc4C(F)F)CC3)c3ccccc32)ccn1 [Example 650, 5-chloro-2-(difluoromethyl)-N-((1r,4r)-4-((3-(2-(dimethyl-amino)pyridin-4-yl)-2-oxo-2,3-dihydro-1H-benzo[d]imidazol-1-yl)methyl)cyclo-hexyl)nicotinamide]
< 300 nM	Cc1ncc(Cl)cc1C(=O)N[C@H]1CC[C@H](Cn2c(=O)n(-c3cccc(-n4ccnc4)n3)c3ccccc32)CC1 [Example 520, N-((1r,4r)-4-((3-(6-(1H-imidazol-1-yl)pyridin-2-yl)-2-oxo-2,3-dihydro-1H-benzo[d]imidazol-1-yl)methyl)cyclo-hexyl)-5-chloro-2-methyl-nicotinamide]
< 300 nM	O=C(N[C@H]1CC[C@H](Cn2c(=O)n(-c3ccc(-n4nccn4)nc3)c3ccccc32)CC1)c1cc(Cl)cnc1C(F)F [Example 685, N-((1r,4r)-4-((3-(6-(2H-1,2,3-triazol-2-yl)pyridin-3-yl)-2-oxo-2,3-dihydro-1H-benzo[d]imidazol-1-yl)methyl)cyclohexyl)-5-chloro-2-(difluoromethyl) nicotinamide]
< 300 nM	CNC(=O)c1ccc(-n2c(=O)n(C[C@H]3CC[C@H](NC(=O)c4cc(Cl)cnc4C(F)F)CC3)c3ccccc32)cn1 [Example 325, 5-(3-(((1r,4r)-4-(5-chloro-2-(difluoromethyl)nicotina-mido)cyclohexyl)methyl)-2-oxo-2,3-dihydro-1H-benzo [d]imidazol-1-yl)-N-methylpicolinamide]
< 300 nM	Cc1ncc(Cl)cc1C(=O)N[C@H]1CC[C@H](Cn2c(=O)n(-c3ccncc3C#N)c3ccccc32)CC1 [Example 249, 5-chloro-N-((1r,4r)-4-((3-(3-cyanopyridin-4-yl)-2-oxo-2,3-dihydro-1H-benzo[d]imidazol-1-yl)methyl)cyclohexyl)-2-methylnicotinamide]
